Results taken from patent US20250333745A1, “METHODS AND COMPOSITIONS FOR TREATMENT OF POLYCYSTIC KIDNEY DISEASE” (Regulus Therapeutics Inc., priority 2016, published 2025).

Legend:
[1] = test system: Pkd2-KO mice; assay: Previous study of tool anti-miR-17 in Pkd2-KO mice; format: in vivo, mouse; details: 20 mg/kg
Method: (§1) Previous studies using a research tool anti-miR-17 compound identified a role for miR-17 in PKD in two different models of PKD, the Pkd2-KO model (also known as the Pkhd1/cre; Pkd2^F/F model) and the Pcy model. The research tool modified oligonucleotide complementary to miR-17 was tested in mouse models of PKD. The anti-miR-17 compound was a fully phosphorothioated oligonucleotide 19 linked nucleosides in length (5′-CTGCACTGTAAGCACTTTG-3′; SEQ ID NO: 7), with DNA, 2′-MOE and S-cEt sugar moieties.
Pkd2-KO mice spontaneously develop polycystic kidney disease. Mice were treated with 20 mg/kg of tool anti-miR-17 compound or control oligonucleotide, or with PBS.

[2] = test system: Pcy mice; assay: Previous study of tool anti-miR-17 in Pcy mice; format: in vivo, mouse; details: 50 mg/kg once weekly for 26 weeks
Method: as §1
Pcy mice bearing a mutation in Nphp3 spontaneously develop polycystic kidney disease, with a slower progression of disease than that observed in the Pkd2-KO mice. Mice were treated with 50 mg/kg of tool anti-miR-17 compound, or with PBS, once weekly for a total of 26 weeks. The mean ratio of kidney weight to body weight in the Pcy mice treated with anti-miR-17 was 19% lower than the mean ratio of kidney weight to body weight in the Pcy mice administered PBS only (p=0.0003).

[3] = Pharmacokinetic profile after three 10 mg/kg subcutaneous injections in C57BL6 and JCK mice; format: in vivo, mouse; details: three 10 mg/kg s.c.; for % Parent: after 21 days
Method: The pharmacokinetic behavior of RG4326 was further characterized in wild type (C57B16) mice and PKD (JCK) mice. Groups of 5 mice each received three 10 mg/kg subcutaneous injections on each of three consecutive days. At one, four, seven, 14 and 21 days after the third and final injection, mice were sacrificed and plasma, kidney and liver samples were collected. For measurement of RG4326, RG4326 was extracted using liquid-liquid extraction (LLE) and/or solid-phase extraction (SPE), which was then analyzed for identity and concentration using ion-pairing-reversed-phase high performance liquid chromatography coupled with time-of-flight mass spectrometry (IP—RP-HPLC-TOF).

[4] = test system: IFIT3 expression; assay: Ex vivo liver slice assay; format: cell-based; details: rat liver slice; 24-hour incubation; relative to PBS
Method: In in vitro assays, the potential for toxicity was assessed using a biochemical fluorescent binding assay (FBA) and a liver or kidney slice assay. The FBA is performed by incubating a fluorescent dye with each compound, and immediately measuring fluorescence. Highly fluorescent compounds have the potential to produce toxicity in vivo. The liver or kidney slice assay is performed by incubating a slice of tissue from a core liver sample isolated from rat. Following a 24-hour incubation, RNA is extracted from the tissue slice, and the expression levels of 18 pro-inflammatory genes are measured. An induction in pro-inflammatory gene expression indicates a potential for pro-inflammatory effects in vivo.
Ex vivo assays were performed with liver or kidney tissue slices. The liver or kidney slice assay is performed by incubating a slice of tissue from a core liver or kidney sample isolated from rat. Following a 24-hour incubation, RNA is extracted from the tissue slice, and the expression levels of 18 pro-inflammatory genes, including IFIT, are measured. A log 2 transformation of the fold change (Log2-FC) relative to PBS treatment was performed. An induction in pro-inflammatory gene expression indicates a potential for pro-inflammatory effects in vivo.

5′-CTGCACTGTAAGCACTTTG-3′ (all phosphorothioate, sugars by position and methylation of C not given here; DNA, 2'-MOE and S-cEt sugars) [Tool anti-miR-17, reference compound]
BUN and expression of kidney injury mRNA biomarkers Kim1 and Nga1 (in words) [1]: significantly reduced | serum creatinine level and cyst index (in words) [1]: trend toward reduced | kidney-to-body weight ratio reduced relative to control treatment ([1]; p=0.017): 17% | mean ratio of kidney weight to body weight lower than PBS only ([2]; p=0.0003): 19% | mean reduction in cyst index compared to PBS only ([2]; p=0.008): 28%

COC1C(OP(=O)(S)OC[C@H]2O[C@@H](n3cnc4c(N)ncnc43)C(F)C2OP(=O)(S)OC[C@H]2O[C@@H](n3ccc(N)nc3=O)C(F)C2OP(=O)(S)OC[C@H]2O[C@@H](n3ccc(=O)[nH]c3=O)C(F)C2OP(=O)(S)OC[C@H]2O[C@@H](n3ccc(=O)[nH]c3=O)C(OC)C2OP(=O)(S)OC[C@]23O[C@@H](n4ccc(=O)[nH]c4=O)C(O[C@H]2C)C3OP(=O)(S)OC[C@]23O[C@@H](n4cnc5c(=O)[nH]c(N)nc54)C(O[C@H]2C)C3O)[C@@H](COP(=O)(S)OC2C3O[C@@H](C)[C@]2(COP(=O)(S)OC2C4O[C@@H](C)[C@]2(CO)O[C@H]4n2cnc4c(N)ncnc42)O[C@H]3n2cnc3c(=O)[nH]c(N)nc32)O[C@H]1n1ccc(N)nc1=O (stereo in doubt) [RG4326, ASGSCMAFCFUFUMUSGS]
AUC0-21 days ([3]; Normal C57BL6 mice, Kidney): 282 µg·days/g | C24 h ([3]; Normal C57BL6 mice, Kidney): 61.4 µg/g | % Parent ([3]; Normal C57BL6 mice, Kidney): >90% | AUC0-21 days ([3]; Normal C57BL6 mice, Liver): 17 µg·days/g | C24 h ([3]; Normal C57BL6 mice, Liver): 1.6 µg/g | % Parent ([3]; Normal C57BL6 mice, Liver): >90% | K/L Ratio (AUC) ([3]; Normal C57BL6 mice): 17 | K/L Ratio (C24 h) ([3]; Normal C57BL6 mice): 38 | AUC0-21 days ([3]; PKD JCK mice, Kidney): 497 µg·days/g | C24 h ([3]; PKD JCK mice, Kidney): 66.5 µg/g | % Parent ([3]; PKD JCK mice, Kidney): >90% | AUC0-21 days ([3]; PKD JCK mice, Liver): 37 µg·days/g | C24 h ([3]; PKD JCK mice, Liver): 5.9 µg/g | % Parent ([3]; PKD JCK mice, Liver): >90% | K/L Ratio (AUC) ([3]; PKD JCK mice): 13 | K/L Ratio (C24 h) ([3]; PKD JCK mice): 11 | parent compound remaining after 21 days ([3]; both plasma and tissues, C57B16 and JCK mice): over 90% | Ex Vivo Liver Slices Assay IFIT3 expression (Log2-FC) [4]: 1.11 ± 0.32 Log2-FC
